Data taken from patent publication US4473578A, “β-Lactam antibiotics and their use” (Beecham Group Limited, priority 1979, dated 1984).
≈ marks a conversion by molar mass, not a printed value.

Experiments:
Assay in all cases: MIC in agar
Assay type in all cases: cell-based
[1] = test system: Staphylococcus aureus Oxford; details: in agar; Staphylococcus aureus Oxford; read-out: M.I.C.
Source text: (§1) a. Antibacterial effectiveness of compounds of
(§2) Examples 6 and 7 in agar.
(§3) (μg/ml) in agar of compound

Klebsiella aerogenes A = details: in agar; Klebsiella aerogenes A; read-out: M.I.C.
Source text: as §1, §2, §3

Serratia marcescens US20 = details: in agar; Serratia marcescens US20; read-out: M.I.C.
Source text: as §1, §2, §3

Citrobacter freundii E8 = details: in agar; Citrobacter freundii E8; read-out: M.I.C.
Source text: as §1, §2, §3

[2] = test system: Streptococcus pneumoniae CN33
Source text: as §1, §2, §3

Enterobacter cloacae N1 = details: in agar; Enterobacter cloacae N1; read-out: M.I.C.
Source text: as §1, §2, §3

[3] = test system: Staphylococcus aureus 1517; details: in agar; Staphylococcus aureus 1517; read-out: M.I.C.
Source text: as §1, §2, §3

Escherichia coli JT39 = details: Escherichia coli, JT39
Source text: as §1, §2, §3

Proteus vulgaris W091 = details: in agar; Proteus vulgaris W091; read-out: M.I.C.
Source text: as §1, §2, §3

Pseudomonas aeruginosa A = details: in agar; Pseudomonas aeruginosa A; read-out: M.I.C.
Source text: as §1, §2, §3

[4] = test system: Streptococcus pyogenes CN10; details: in agar; Streptococcus pyogenes CN10; read-out: M.I.C.
Source text: as §1, §2, §3

Shigella sonnei MB 11967 = details: MB11967
Source text: as §1, §2, §3

Bacillus subtilis A = details: in agar; Bacillus subtilis A; read-out: M.I.C.
Source text: as §1, §2, §3

Escherichia coli 0111 = test system: Escherichia coli 0111
Source text: as §1, §2, §3

[5] = test system: Salmonella typhimurium CT10; details: Salmonella enterica; in agar; Salmonella typhimurium CT10; read-out: M.I.C.
Source text: as §1, §2, §3

Proteus mirabilis C977 = details: in agar; Proteus mirabilis C977; read-out: M.I.C.
Source text: as §1, §2, §3

Proteus rettgeri WM16 = details: Providencia rettgeri; in agar; Proteus rettgeri WM16; read-out: M.I.C.
Source text: as §1, §2, §3

Streptococcus faecalis I = details: Enterococcus faecalis; in agar; Streptococcus faecalis I; read-out: M.I.C.
Source text: as §1, §2, §3

E. coli ESS = details: Escherichia coli
Source text: | (μg/ml) in agar of compound

Question: What does the source list for `C[C@H](O)[C@@H]1C(=O)N2C(C(=O)O)=C(S/C=C\C(=O)OCCN)C[C@H]12` [Example 20, (5R,6R)-3-[2-(Z)-(2-Aminoethoxycarbonyl)ethenylthio]-6-[(S)-1-hydroxyethyl]-7-oxo-1-azabicyclo[3.2.0]hept-2-ene-2-carboxylic acid]?
Answer: MIC [1]: ≤ 0.1 µg/mL; MIC (Klebsiella aerogenes A): ≤ 0.1 µg/mL; MIC (Serratia marcescens US20): ≤ 0.1 µg/mL; MIC (Citrobacter freundii E8): 0.2 µg/mL (≈ 0.584 µM); MIC [2]: ≤ 0.1 µg/mL; MIC (Enterobacter cloacae N1): 0.2 µg/mL (≈ 0.584 µM); MIC [3]: 0.2 µg/mL (≈ 0.584 µM); MIC (Escherichia coli JT39): 0.2 µg/mL (≈ 0.584 µM); MIC (Proteus vulgaris W091): 0.4 µg/mL (≈ 1.17 µM); MIC (Pseudomonas aeruginosa A): 25 µg/mL (≈ 73 µM); MIC [4]: ≤ 0.1 µg/mL; MIC (Shigella sonnei MB 11967): 0.2 µg/mL (≈ 0.584 µM); MIC (Bacillus subtilis A): ≤ 0.1 µg/mL; MIC (Escherichia coli 0111): ≤ 0.1 µg/mL; MIC [5]: ≤ 0.1 µg/mL; MIC (Proteus mirabilis C977): 0.4 µg/mL (≈ 1.17 µM); MIC (Proteus rettgeri WM16): 0.2 µg/mL (≈ 0.584 µM); MIC (Streptococcus faecalis I): ≤ 0.1 µg/mL; MIC (E. coli ESS): ≤ 0.1 µg/mL
